Molecular target: CYP2D6 (Homo sapiens, UniProt P10635)
Test: Inhibition of human recombinant CYP2D6 at 5 uM assessed as blockade of O-demethylation of dextromethorphan in to dextrophan by nanoscale automated in-capillary assay
Format: ADME
Conditions: recombinant CYP2D6, probe dextromethorphan (O-demethylation to dextrorphan)

Sequence of CYP2D6 (P10635 whole entry): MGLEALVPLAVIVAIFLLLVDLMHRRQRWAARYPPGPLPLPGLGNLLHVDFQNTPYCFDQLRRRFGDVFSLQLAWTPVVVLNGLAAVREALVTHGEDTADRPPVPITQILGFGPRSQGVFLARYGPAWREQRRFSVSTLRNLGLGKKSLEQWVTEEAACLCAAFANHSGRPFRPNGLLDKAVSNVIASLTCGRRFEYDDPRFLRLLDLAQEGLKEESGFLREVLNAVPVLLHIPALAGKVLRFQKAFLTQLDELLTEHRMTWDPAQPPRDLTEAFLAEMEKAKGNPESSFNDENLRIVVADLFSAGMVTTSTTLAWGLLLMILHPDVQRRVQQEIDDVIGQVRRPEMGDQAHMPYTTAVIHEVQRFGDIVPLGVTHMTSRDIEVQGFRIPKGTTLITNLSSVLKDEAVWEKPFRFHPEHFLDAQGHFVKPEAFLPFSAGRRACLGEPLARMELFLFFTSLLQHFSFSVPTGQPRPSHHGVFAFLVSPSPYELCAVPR

Structure (SMILES) | inhibition at 5 µM [%]
CNCCC(Oc1ccc(C(F)(F)F)cc1)c1ccccc1 (configuration not stated) [FLUOXETINE] | 20
COc1ccc(C(CN(C)C)C2(O)CCCCC2)cc1 (configuration not stated) [VENLAFAXINE] | 0

Reference: ChEMBL document CHEMBL1153443, “Development of an in-capillary approach to nanoscale automated in vitro cytochromes p450 assays” (J Med Chem, 2009)
